Laboratory results taken from the supplement of paper PMC10307832.

Legend:
Assay in all cases: relative viability (nuclei count vs DMSO), 5 days (fraction); higher = more cells survive
NCI-H2126 = tested on: NCI-H2126
Summary of the method: (§1)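 Relative viability divides the nuclei count in treated wells by that in vehicle wells. Lung cancer cell lines were seeded in 1536-well plates, dosed by pin tool the next day, and fixed and stained after 5 days in one step with final 0.05% Triton X-100, 1% formaldehyde and 1 ug/ml Hoechst. Dosing was a single drug or a fixed anchor-drug dose plus five library-drug doses (not always all listed) in √10 steps, and values are medians of duplicate plates imaged at 4×.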

NCI-H1755 = tested on: NCI-H1755
Summary of the method: as §1

NCI-H2170 = tested on: NCI-H2170
Summary of the method: as §1

ChaGo-K-1 = tested on: ChaGo-K-1
Summary of the method: as §1

LXF-289 = tested on: LXF-289
Summary of the method: as §1

NCI-H2087 = tested on: NCI-H2087
Summary of the method: as §1

ABC-1 = tested on: ABC-1
Summary of the method: as §1

201T = tested on: 201T
Summary of the method: as §1

NCI-H322M = tested on: NCI-H322M
Summary of the method: as §1

CAL-12T = tested on: CAL-12T
Summary of the method: as §1

EMC-BAC-2 = tested on: EMC-BAC-2
Summary of the method: as §1

NCI-H1734 = tested on: NCI-H1734
Summary of the method: as §1

NCI-H3122 = tested on: NCI-H3122
Summary of the method: as §1

NCI-H1651 = tested on: NCI-H1651
Summary of the method: as §1

NCI-H596 = tested on: NCI-H596
Summary of the method: as §1

NCI-H441 = tested on: NCI-H441
Summary of the method: as §1

PC-14 = tested on: PC-14
Summary of the method: as §1

HOP-62 = tested on: HOP-62
Summary of the method: as §1

LK-2 = tested on: LK-2
Summary of the method: as §1

H3255 = tested on: H3255
Summary of the method: as §1

NCI-H647 = tested on: NCI-H647
Summary of the method: as §1

Work on `O=c1[nH]c2ccccc2n1C1CCN(CCCC(c2ccc(F)cc2)c2ccc(F)cc2)CC1` [Pimozide] + NC(=O)Nc1cc(-c2cccc(F)c2)sc1C(=O)N[C@H]1CCCNC1 [AZD7762] (partner 0.2 µM) yielded a relative viability (NCI-H2126; first compound 0.08 µM) of 1.02, a relative viability (NCI-H2126; first compound 0.253 µM) of 1.06 and a relative viability (NCI-H2126; first compound 0.8 µM) of 1.01. For the same compound, the relative viability (NCI-H2126; first compound 2.53 µM) was 1.02, the relative viability (NCI-H2126; first compound 8 µM) was 1 and the relative viability (NCI-H1755; first compound 0.08 µM) was 0.727. It also gave a relative viability (NCI-H1755; first compound 0.253 µM) of 0.42, a relative viability (NCI-H1755; first compound 0.8 µM) of 0.47 and a relative viability (NCI-H1755; first compound 2.53 µM) of 0.533. For the same compound, the relative viability (NCI-H1755; first compound 8 µM) was 0.46, the relative viability (NCI-H2170; first compound 0.08 µM) was 0.875 and the relative viability (NCI-H2170; first compound 0.253 µM) was 0.828. For the same compound, the relative viability (NCI-H2170; first compound 0.8 µM) was 0.85, the relative viability (NCI-H2170; first compound 2.53 µM) was 0.915 and the relative viability (NCI-H2170; first compound 8 µM) was 0.802. For the same compound, the relative viability (ChaGo-K-1; first compound 0.08 µM) was 0.914, the relative viability (ChaGo-K-1; first compound 0.253 µM) was 0.871 and the relative viability (ChaGo-K-1; first compound 0.8 µM) was 0.88. For the same compound, the relative viability (ChaGo-K-1; first compound 2.53 µM) was 0.803, the relative viability (ChaGo-K-1; first compound 8 µM) was 0.824 and the relative viability (LXF-289; first compound 0.08 µM) was 1.07. It also gave a relative viability (LXF-289; first compound 0.253 µM) of 1.1, a relative viability (LXF-289; first compound 0.8 µM) of 1.08 and a relative viability (LXF-289; first compound 2.53 µM) of 1.13. The relative viability (LXF-289; first compound 8 µM) was 0.962, the relative viability (NCI-H2087; first compound 0.08 µM) was 1.27 and the relative viability (NCI-H2087; first compound 0.253 µM) was 1.31. The relative viability (NCI-H2087; first compound 2.53 µM) was 1.22, the relative viability (NCI-H2087; first compound 8 µM) was 1.25 and the relative viability (ABC-1; first compound 0.253 µM) was 0.775. It also gave a relative viability (ABC-1; first compound 0.8 µM) of 0.817, a relative viability (ABC-1; first compound 2.53 µM) of 0.583 and a relative viability (ABC-1; first compound 8 µM) of 0.509. For the same compound, the relative viability (201T; first compound 0.08 µM) was 0.602, the relative viability (201T; first compound 0.253 µM) was 0.615 and the relative viability (201T; first compound 0.8 µM) was 0.541. The relative viability (201T; first compound 2.53 µM) was 0.537, the relative viability (201T; first compound 8 µM) was 0.652 and the relative viability (NCI-H322M; first compound 0.08 µM) was 0.502. For the same compound, the relative viability (NCI-H322M; first compound 0.253 µM) was 0.538, the relative viability (NCI-H322M; first compound 0.8 µM) was 0.58 and the relative viability (NCI-H322M; first compound 2.53 µM) was 0.625. It also gave a relative viability (NCI-H322M; first compound 8 µM) of 0.387, a relative viability (CAL-12T; first compound 0.08 µM) of 0.64 and a relative viability (CAL-12T; first compound 0.253 µM) of 0.587. For the same compound, the relative viability (CAL-12T; first compound 0.8 µM) was 0.539, the relative viability (CAL-12T; first compound 2.53 µM) was 0.511 and the relative viability (CAL-12T; first compound 8 µM) was 0.587. The relative viability (EMC-BAC-2; first compound 0.08 µM) was 1.06, the relative viability (EMC-BAC-2; first compound 0.253 µM) was 1.03 and the relative viability (EMC-BAC-2; first compound 0.8 µM) was 1. It also gave a relative viability (EMC-BAC-2; first compound 2.53 µM) of 1.09, a relative viability (EMC-BAC-2; first compound 8 µM) of 1 and a relative viability (NCI-H1734; first compound 0.08 µM) of 0.573. For the same compound, the relative viability (NCI-H1734; first compound 0.253 µM) was 0.558, the relative viability (NCI-H1734; first compound 0.8 µM) was 0.487 and the relative viability (NCI-H1734; first compound 2.53 µM) was 0.511. The relative viability (NCI-H1734; first compound 8 µM) was 0.485, the relative viability (NCI-H3122; first compound 0.08 µM) was 0.977 and the relative viability (NCI-H3122; first compound 0.253 µM) was 0.882. The relative viability (NCI-H3122; first compound 0.8 µM) was 0.963, the relative viability (NCI-H3122; first compound 2.53 µM) was 1.05 and the relative viability (NCI-H3122; first compound 8 µM) was 0.825. The relative viability (NCI-H1651; first compound 0.08 µM) was 0.453, the relative viability (NCI-H1651; first compound 0.253 µM) was 0.423 and the relative viability (NCI-H1651; first compound 0.8 µM) was 0.41. The relative viability (NCI-H1651; first compound 2.53 µM) was 0.433, the relative viability (NCI-H1651; first compound 8 µM) was 0.469 and the relative viability (NCI-H596; first compound 0.08 µM) was 1.17. It also gave a relative viability (NCI-H596; first compound 0.253 µM) of 1.31, a relative viability (NCI-H596; first compound 0.8 µM) of 1.31 and a relative viability (NCI-H596; first compound 2.53 µM) of 1.19. The relative viability (NCI-H596; first compound 8 µM) was 1.04, the relative viability (NCI-H441; first compound 0.08 µM) was 1.32 and the relative viability (NCI-H441; first compound 0.253 µM) was 0.806. The relative viability (NCI-H441; first compound 0.8 µM) was 1.26, the relative viability (NCI-H441; first compound 2.53 µM) was 1.09 and the relative viability (NCI-H441; first compound 8 µM) was 1.04. It also gave a relative viability (PC-14; first compound 0.253 µM) of 0.348, a relative viability (PC-14; first compound 0.8 µM) of 0.271 and a relative viability (PC-14; first compound 2.53 µM) of 0.328. The relative viability (PC-14; first compound 8 µM) was 0.402, the relative viability (HOP-62; first compound 0.08 µM) was 0.634 and the relative viability (HOP-62; first compound 0.253 µM) was 0.477. For the same compound, the relative viability (HOP-62; first compound 2.53 µM) was 0.661, the relative viability (HOP-62; first compound 8 µM) was 0.517 and the relative viability (LK-2; first compound 0.08 µM) was 0.539. It also gave a relative viability (LK-2; first compound 0.253 µM) of 0.438, a relative viability (LK-2; first compound 0.8 µM) of 0.376 and a relative viability (LK-2; first compound 8 µM) of 0.417. The relative viability (H3255; first compound 0.253 µM) was 0.858, the relative viability (H3255; first compound 0.8 µM) was 0.777 and the relative viability (H3255; first compound 2.53 µM) was 0.838. For the same compound, the relative viability (H3255; first compound 8 µM) was 0.879, the relative viability (NCI-H647; first compound 0.08 µM) was 0.46 and the relative viability (NCI-H647; first compound 0.253 µM) was 0.26. It also gave a relative viability (NCI-H647; first compound 0.8 µM) of 0.245, a relative viability (NCI-H647; first compound 2.53 µM) of 0.409 and a relative viability (NCI-H647; first compound 8 µM) of 0.532.
